Among the test systems are MDA-N; MDA-MB-231 breast; EKVX NSCLC; SNB-19 CNS; K-562 leukemia; SK-MEL-2 melanoma; TK-10 renal; NCI-H522 lung; UACC-257 melanoma.
What all share (experiment): NCI anticancer screen, dose series, 48 h

The structures appear in SMILES notation.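 Five compound concentrations were applied to cells in 96-well plates for 48 hours; endpoints were derived by simple linear interpolation of the resulting dose-response curve. The concentration for full growth arrest is given as TGI.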

Turning to `C/C=C1/CN2CCC34c5ccccc5N(C)C23C2CC1C4(C(=O)OC)C(OC(C)=O)O2` (stereo not given), the TGI with MDA-N, with MDA-MB-231 breast, with EKVX NSCLC, in the test with SNB-19 CNS, in the test on K-562 leukemia and in the test with SK-MEL-2 melanoma was more than 100 µM in each case. The TGI in the test on TK-10 renal, with NCI-H522 lung and in the test with UACC-257 melanoma was more than 100 µM throughout.
Regarding `COC(=O)c1c(O)ccc2c1c1cc3ccccc3cc1n2Cc1cc(OC)cc(OC)c1`, the TGI was 3.72 µM in the test on MDA-N; more than 100 µM in the test with MDA-MB-231 breast; more than 100 µM with EKVX NSCLC; more than 100 µM in the test with SNB-19 CNS; more than 100 µM with K-562 leukemia; 24.6 µM in the test with SK-MEL-2 melanoma. The values for the TGI in the test on TK-10 renal, in the test on NCI-H522 lung and with UACC-257 melanoma were more than 100 µM, 0.415 µM and more than 100 µM, respectively.
In the case of `CCOP(=O)(CCCC(O)CNc1nc(N)nc(Cl)c1N=Nc1ccc(Cl)cc1)OCC` (stereo not given), the TGI in the test with MDA-N was 18.8 µM; with MDA-MB-231 breast, 8.6 µM; in the test on EKVX NSCLC, 15.5 µM; with SNB-19 CNS, 22.8 µM; in the test on K-562 leukemia, 16 µM; in the test with SK-MEL-2 melanoma, 27.3 µM. For the same compound, the TGI with TK-10 renal was determined as 13.6 µM; in the test on NCI-H522 lung it was 17 µM; in the test with UACC-257 melanoma, 18.1 µM.
In the case of `CCOC(=O)/C=C(/C(=O)OCC)n1cc(C)c(=O)n(Cc2cnnn2COCCOC(C)=O)c1=O`, the TGI in the test with MDA-N is 48.5 µM; in the test on MDA-MB-231 breast it was 36.1 µM; with EKVX NSCLC, 29.3 µM; in the test on SNB-19 CNS, more than 100 µM; with K-562 leukemia, 24.8 µM; in the test on SK-MEL-2 melanoma, 60.3 µM. For the same compound, the TGI worked out at 12.3 µM in the test with TK-10 renal, 3.65 µM in the test with NCI-H522 lung and 28.6 µM in the test on UACC-257 melanoma.
With `Cc1c(C(=O)O)n2c(=S)[nH]nc2c2ccccc12`, the TGI in the test with MDA-N, in the test on MDA-MB-231 breast, in the test on EKVX NSCLC, in the test on SNB-19 CNS, in the test with K-562 leukemia and in the test on SK-MEL-2 melanoma was more than 100 µM throughout. Further, the TGI in the test on TK-10 renal, in the test on NCI-H522 lung and in the test on UACC-257 melanoma was more than 100 µM each time.
On to `O=P(O)(O)c1ccc(-c2ccc(I)cc2)cc1`, for which the TGI in the test on MDA-N, in the test on MDA-MB-231 breast, in the test on EKVX NSCLC, with SNB-19 CNS, with K-562 leukemia and in the test with SK-MEL-2 melanoma was more than 100 µM each time. Besides, the TGI in the test on TK-10 renal, with NCI-H522 lung and with UACC-257 melanoma was more than 100 µM throughout.
Turning to `COc1ccc(-n2c(SC(CN3CCOCC3)CN3CCCC3=O)nc3ccccc3c2=O)cc1` (stereo not given), the TGI in the test on MDA-N, in the test with MDA-MB-231 breast, in the test on EKVX NSCLC, with SNB-19 CNS, in the test with K-562 leukemia and in the test with SK-MEL-2 melanoma was more than 100 µM throughout. Further, the TGI with TK-10 renal, in the test on NCI-H522 lung and with UACC-257 melanoma was more than 100 µM in each case.
For the compound `COC(=O)CNC(=O)C(Cc1ccccc1)NC(=O)c1ccc(-c2ccc(Cl)cc2Cl)o1` (stereo not given), the TGI with MDA-N was 86.8 µM; in the test on MDA-MB-231 breast it was 52.4 µM; with EKVX NSCLC, 78.6 µM; with SNB-19 CNS, more than 100 µM; with K-562 leukemia it was more than 100 µM; with SK-MEL-2 melanoma, 96.6 µM. Also, the TGI with TK-10 renal is 75.2 µM; in the test with NCI-H522 lung, 43.3 µM; in the test on UACC-257 melanoma it was 57.5 µM.
Regarding `Cc1nnc(N)nc1/C=C\c1ccc(Cl)cc1Cl`, the TGI was more than 100 µM with MDA-N; more than 100 µM with MDA-MB-231 breast; more than 100 µM in the test on EKVX NSCLC; more than 100 µM in the test on SNB-19 CNS; more than 100 µM in the test with K-562 leukemia; 32.6 µM with SK-MEL-2 melanoma. Moreover, the TGI in the test on TK-10 renal was more than 100 µM; with NCI-H522 lung, 57.5 µM; in the test on UACC-257 melanoma, more than 100 µM.
Turning to `CNC(=O)N(CCC#N)CCN(C(=O)NC)c1ccccc1`, the TGI in the test on MDA-N, with MDA-MB-231 breast, with EKVX NSCLC, in the test on SNB-19 CNS, with K-562 leukemia and in the test on SK-MEL-2 melanoma was more than 100 µM throughout. Moreover, the TGI with TK-10 renal, in the test with NCI-H522 lung and in the test on UACC-257 melanoma was more than 100 µM throughout.
For `Cc1ncc([N+](=O)[O-])n1CC[N+](C)([O-])CCCCn1ccnc1[N+](=O)[O-]` (stereo not given), the TGI in the test with MDA-N, in the test on MDA-MB-231 breast, in the test on EKVX NSCLC, with K-562 leukemia, in the test with SK-MEL-2 melanoma and with TK-10 renal was more than 100 µM each time. Besides, the TGI in the test with NCI-H522 lung and with UACC-257 melanoma was more than 100 µM throughout.
In the case of `N[C@H]1c2c(Br)sc(Br)c2C(=O)[C@H]1O`, the TGI came to 30.1 µM in the test with MDA-N; 36.1 µM in the test with MDA-MB-231 breast; 30.2 µM in the test on EKVX NSCLC; 55.5 µM in the test on SNB-19 CNS; 15.2 µM with K-562 leukemia; 69.9 µM with SK-MEL-2 melanoma. Also, the TGI is more than 100 µM in the test with TK-10 renal, 8.97 µM in the test on NCI-H522 lung and 29.7 µM in the test with UACC-257 melanoma.
Take `CN(C)CN1CSC(=S)N(CN(C)C)C1`: the TGI with MDA-N is more than 100 µM; in the test with MDA-MB-231 breast it was more than 100 µM; in the test with EKVX NSCLC, more than 100 µM; with SNB-19 CNS, more than 100 µM; in the test with K-562 leukemia, more than 100 µM; in the test with SK-MEL-2 melanoma it was 96.3 µM. The TGI in the test with TK-10 renal, in the test with NCI-H522 lung and in the test on UACC-257 melanoma was more than 100 µM throughout.
For the compound `CCC(=O)Nc1cccc(N=Cc2ccc(OC(=O)/C=C\c3ccccc3)cc2)c1`, the TGI in the test on MDA-N, in the test with MDA-MB-231 breast, in the test on EKVX NSCLC, in the test with SNB-19 CNS, with K-562 leukemia and in the test with SK-MEL-2 melanoma was more than 75 µM each time. Besides, the TGI in the test on TK-10 renal, in the test on NCI-H522 lung and with UACC-257 melanoma was more than 75 µM in each case.

The values are drawn from PubChem BioAssay (NCI).
